In general, % Inhibition refers to the drop in the measured response relative to a control, in per cent. For orientation: EC50 means the concentration that produces a half-maximal response. Low values mean a more potent agent, high ones a less potent agent. A word on the IC50: it is the concentration needed to halve the response being measured. The low end stands for greater potency, the high end for weaker potency. As a reminder, the Emax is the maximal effect, on the per cent scale that the assay sets. In general, Ki refers to a measure of affinity in units of concentration, obtained from inhibition or displacement.

For assay [1], the target named is T1, human M2 muscarinic receptor (Homo sapiens, UniProt P08172).
T1 construct: purchased PerkinElmer Life and Analytical Sciences, Boston, MA
T1 sequence (P08172 1-466): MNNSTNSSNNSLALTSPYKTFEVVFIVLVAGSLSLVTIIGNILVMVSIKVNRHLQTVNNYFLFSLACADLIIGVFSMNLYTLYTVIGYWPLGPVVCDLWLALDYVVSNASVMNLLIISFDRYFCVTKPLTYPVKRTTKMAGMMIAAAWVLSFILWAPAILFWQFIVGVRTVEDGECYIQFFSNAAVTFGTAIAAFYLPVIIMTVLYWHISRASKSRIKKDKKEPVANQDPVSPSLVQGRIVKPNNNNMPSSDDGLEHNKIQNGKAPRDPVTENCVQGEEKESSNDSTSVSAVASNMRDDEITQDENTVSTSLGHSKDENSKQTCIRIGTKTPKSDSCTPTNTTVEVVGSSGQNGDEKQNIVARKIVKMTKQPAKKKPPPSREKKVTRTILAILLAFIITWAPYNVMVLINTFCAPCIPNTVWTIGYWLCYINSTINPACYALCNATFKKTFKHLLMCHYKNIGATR
Also on record: method as in Watt et al. 2013 [10]. The following applies: agonist mode, ref Watt et al. 2013 [10], cited from earlier work.

Assay [2] has as its target T2, human M3 muscarinic receptor (Homo sapiens, UniProt P20309).
T2 construct: purchased PerkinElmer Life and Analytical Sciences, Boston, MA
Also on record: method as in Watt et al. 2013 [10]. The note with it: antagonist mode, ref Watt et al. 2013 [10], cited from earlier work.

Assay [3] concerns the target T1, human M2 muscarinic receptor. As to the kind of experiment: GTP-γ-[35S] binding, antibody capture SPA (agonist and antagonist mode). The class given is biochemical. As to the method:
(§1) The antibody capture scintillation proximity technique previously described by DeLapp et al was used in a 96-well plate to determine GTP-γ-[35S] binding. One hundred μl (20–40 fmol/well) of membrane preparation from CHO cells that stably express the human M1-M5 muscarinic receptors (PerkinElmer Life and Analytical Sciences, Boston, MA) were incubated with varying concentration of test compound (final concentrations from 50pM to 1μM) for 30 min. One μM final concentration of GDP was added to M2 and M4 receptor membranes before incubation. […] (500 pM final concentration; Perkin Elmer Life and Analytical Sciences) was added to each well followed by 30 min of incubation. Then the labelled membranes were solubilized with 0.27% Nonidet P40 for 30 min where after they were incubated with 20 μl (final dilution of 1:400) of the appropriate rabbit polyclonal Gα antibody (Covance, Princeton, NJ) for 60 min. An anti-Gαq/11 antibody was used for the M1-, M3-, and M5 membranes, whereas an anti-Gαi-3 antibody was used for the M2- and M4 membranes (Eli Lilly and Company, Indianapolis, IN). After 60 min of incubation, 50 μl (1.25 mg/well) anti-rabbit scintillation proximity assay (SPA) beads (GE Healthcare, Piscataway, NJ) were added per well where after the plates were incubated for another 3 h. By use of a Wallac MicroBeta TriLux scintillation counter (PerkinElmer), the plates were centrifuged for 10 min at 700 × g and counted for 1 min per well. The incubations took place at room temperature in GTP-binding assay buffer (20 mM Hepes, 100 mm NaCl, 5 mM MgC12, pH 7.4). The data were analyzed by use of nonlinear regression for a sigmoidal concentration response curve (GraphPad Prism v. 4.0). Data were normalized to a full agonist response (100 μM oxotremorine-M). […] The antagonist percent inhibition data were normalized to data generated with an EC90 concentration of acetylcholine. The mean relative EC50, IC50, and %Emax, and pKi values were calculated as a mean of at least three independent experiments±SEM. In order to obtain relevant comparisons between subtypes, the experimental system is routinely calibrated with reference agonists (oxotremorine-M, pilocarpine, MCN-A343) to measure full and partial agonism as well as to ensure that the system is not under- or over-reporting functional efficacies. The radioligand binding assays have earlier been described.
Background: GTPγS is a poorly hydrolysed GTP analogue; its binding reports G protein activation.

Assay [4] has as its target T2, human M3 muscarinic receptor. The assay is described as above. The class given is biochemical. As to the method:
as §1

For assay [5], the target named is T3, M4AChR (Homo sapiens, UniProt P08173).
T3 sequence (P08173 1-479): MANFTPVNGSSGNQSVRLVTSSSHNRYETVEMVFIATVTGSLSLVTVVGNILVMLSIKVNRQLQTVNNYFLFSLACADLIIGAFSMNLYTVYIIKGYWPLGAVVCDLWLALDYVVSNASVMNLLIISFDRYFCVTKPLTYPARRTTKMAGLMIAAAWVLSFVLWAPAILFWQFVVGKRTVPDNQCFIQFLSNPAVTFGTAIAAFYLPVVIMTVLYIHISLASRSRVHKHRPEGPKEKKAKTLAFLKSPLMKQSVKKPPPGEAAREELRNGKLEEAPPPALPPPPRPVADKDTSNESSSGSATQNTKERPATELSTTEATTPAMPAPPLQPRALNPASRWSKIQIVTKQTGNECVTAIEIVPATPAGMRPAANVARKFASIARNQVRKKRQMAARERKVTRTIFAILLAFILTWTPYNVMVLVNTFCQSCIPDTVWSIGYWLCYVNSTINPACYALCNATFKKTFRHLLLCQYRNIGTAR
As to the kind of experiment: Competitive radioligand binding.

The target of assay [6] is T4, M2AChR (Homo sapiens, UniProt P08172).
T4 sequence (P08172 1-466): T1 sequence (P08172 1-466)
Kind of assay: Competitive radioligand binding.

Setting [7] is: antagonist mode, maximal inhibition of EC90 agonist response.
[8] abbreviates: percentage of maximum 100 μM oxotremorine-M signal.

SMILES strings stand for the structures. Like-named read-outs stand apart in the source and are kept apart here.

T2 sequence (P20309 whole entry): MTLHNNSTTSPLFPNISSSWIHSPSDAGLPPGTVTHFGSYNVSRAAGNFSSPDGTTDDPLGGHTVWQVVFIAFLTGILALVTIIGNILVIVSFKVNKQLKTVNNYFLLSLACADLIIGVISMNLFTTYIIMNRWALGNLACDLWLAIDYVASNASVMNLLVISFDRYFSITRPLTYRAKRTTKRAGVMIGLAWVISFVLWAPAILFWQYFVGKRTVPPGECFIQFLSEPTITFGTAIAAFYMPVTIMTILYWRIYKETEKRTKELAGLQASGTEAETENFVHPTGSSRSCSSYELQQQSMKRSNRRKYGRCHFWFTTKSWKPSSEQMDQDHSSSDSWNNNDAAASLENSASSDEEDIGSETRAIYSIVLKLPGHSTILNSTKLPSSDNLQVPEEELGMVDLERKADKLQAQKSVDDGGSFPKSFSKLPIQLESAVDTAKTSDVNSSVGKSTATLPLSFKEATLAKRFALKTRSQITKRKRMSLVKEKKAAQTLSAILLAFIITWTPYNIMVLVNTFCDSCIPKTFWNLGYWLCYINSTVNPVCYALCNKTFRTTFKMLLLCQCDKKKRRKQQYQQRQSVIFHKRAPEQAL

For the compound `CCCCSc1nsnc1[C@H]1CN2CCC[C@H]1C2` [BuTAC, (5R,6R)-6-(3-butylthio-1,2,5-thiadiazol-4-yl)-1-azabicyclo[3.2.1]octane], in assay [1] (negative log-transformed), the “Rel pEC50” value is given as 9.56 ±10.26 M. In addition, the “% Emax” value in assay [1] was 136.53 ± 17.20%. In addition, the “Rel pIC50” value in assay [2] (negative log-transformed) is listed as 8.55 ± 8.59 M. The “% Inhibition” value in assay [2] is 100.00 ± 0.00%.
Turning to `CCCSc1nsnc1[C@H]1CN2CCC[C@H]1C2` [PTAC, (5R,6R) 6-(3-propylthio-1,2,5-thiadiazol-4-yl)-1-azabicyclo-[3.2.1]-octane], the concentration for a half-maximal effect (EC50) in assay [3] is 0.501 nM; in assay [4], 1.95 nM. Besides, the IC50 is 3.47 nM in assay [3] and 20.4 nM in assay [4]. Moreover, the “% Inhibition” value is given as 16.8 ± 5.49% in assay [3] (setting [7]) and 90.45 ± 3.52% in assay [4] (setting [7]). The Emax was 68.5 ± 5.23% in assay [3] (setting [8]) and 11.9 ± 3.07% in assay [4] (setting [8]). For the same compound, the Ki was 0.282 nM in assay [5] and 3.8 nM in assay [6].

Source of the values: PMC4399838, “Antipsychotic-Like Effect of the Muscarinic Acetylcholine Receptor Agonist BuTAC in Non-Human Primates” (PLoS ONE, 2015).
